Here are results for seven cell lines from the supplement of paper PMC10307832.

Holding throughout (experiment): relative viability (nuclei count vs DMSO), 5 days (fraction); higher = more cells survive
Compound in the test “Decitabine + Foretinib”: Nc1ncn([C@H]2C[C@H](O)[C@@H](CO)O2)c(=O)n1 [Decitabine] + COc1cc2c(Oc3ccc(NC(=O)C4(C(=O)Nc5ccc(F)cc5)CC4)cc3F)ccnc2cc1OCCCN1CCOCC1 [Foretinib] (partner 0.25 µM)
Put shortly: (§1)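 Medians of duplicate plates are given as relative viability. That measure is the nuclei count in treated wells divided by the count in vehicle wells. Counts were taken on 4× images of lung cancer cell lines in 1536-well plates, 5 days after pin-tool dosing the day after seeding with one drug alone or a fixed anchor-drug dose plus five library-drug doses (not always all listed) in √10 steps.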

Compound in the test “Cediranib + AZD7762”: COc1cc2c(Oc3ccc4[nH]c(C)cc4c3F)ncnc2cc1OCCCN1CCCC1 [Cediranib] + NC(=O)Nc1cc(-c2cccc(F)c2)sc1C(=O)N[C@H]1CCCNC1 [AZD7762] (partner 0.2 µM)
Put shortly:
as §1

Compound in test [1]: O=C(C[C@H]1NCCC[C@@H]1O)Cn1cnc2cc(Br)c(Cl)cc2c1=O (racemic) [Halofuginone] + C[C@@H](Oc1cc(-c2cnn(C3CCNCC3)c2)cnc1N)c1c(Cl)ccc(F)c1Cl [Crizotinib] (partner 1 µM)
Put shortly: as §1

Compound in the test “Decitabine + Linsitinib”: Nc1ncn([C@H]2C[C@H](O)[C@@H](CO)O2)c(=O)n1 [Decitabine] + C[C@]1(O)C[C@@H](c2nc(-c3ccc4ccc(-c5ccccc5)nc4c3)c3c(N)nccn32)C1 [Linsitinib] (partner 1 µM)
Summed up: as §1

As to NCI-H2126, the relative viability with Decitabine + Foretinib (first compound 0.04 µM) worked out at 1.05; with Decitabine + Foretinib (first compound 0.1265 µM) it was 0.929; in the test with Decitabine + Foretinib (first compound 0.4 µM), 0.607; in the test with Decitabine + Foretinib (first compound 1.265 µM), 0.583; in the test with Decitabine + Foretinib (first compound 4 µM) it was 0.466; with Cediranib + AZD7762 (first compound 0.04 µM) it was 0.985. The relative viability with Cediranib + AZD7762 (first compound 0.1265 µM) turned out to be 1.08; in the test with Cediranib + AZD7762 (first compound 0.4 µM) it was 1.01; with Cediranib + AZD7762 (first compound 1.265 µM), 0.87; with Cediranib + AZD7762 (first compound 4 µM), 1.05; in test [1] (first compound 0.001 µM), 1.02; in test [1] (first compound 0.003162 µM), 1.03. Besides, the relative viability stood at 0.998 in test [1] (first compound 0.01 µM); 1.02 in test [1] (first compound 0.03162 µM); 0.987 in test [1] (first compound 0.1 µM); 0.698 with Decitabine + Linsitinib (first compound 0.04 µM); 0.677 in the test with Decitabine + Linsitinib (first compound 0.1265 µM); 0.591 with Decitabine + Linsitinib (first compound 0.4 µM). In addition, the relative viability with Decitabine + Linsitinib (first compound 1.265 µM) was found to be 0.533; with Decitabine + Linsitinib (first compound 4 µM), 0.489.
Take NCI-H2347: the relative viability with Decitabine + Foretinib (first compound 0.1265 µM) came to 0.857; in the test with Decitabine + Foretinib (first compound 0.4 µM), 0.454; in the test with Decitabine + Foretinib (first compound 1.265 µM), 0.683; in the test with Decitabine + Foretinib (first compound 4 µM), 0.819; with Cediranib + AZD7762 (first compound 0.04 µM), 0.808; in the test with Cediranib + AZD7762 (first compound 0.1265 µM) it was 0.808. The relative viability was 0.755 with Cediranib + AZD7762 (first compound 0.4 µM); 0.746 with Cediranib + AZD7762 (first compound 1.265 µM); 0.691 with Cediranib + AZD7762 (first compound 4 µM); 0.677 in test [1] (first compound 0.001 µM); 0.72 in test [1] (first compound 0.003162 µM); 0.81 in test [1] (first compound 0.01 µM). Moreover, the relative viability in test [1] (first compound 0.03162 µM) came to 0.736; in test [1] (first compound 0.1 µM), 0.551; in the test with Decitabine + Linsitinib (first compound 0.04 µM), 0.936; with Decitabine + Linsitinib (first compound 0.1265 µM), 0.935; with Decitabine + Linsitinib (first compound 0.4 µM), 0.725; with Decitabine + Linsitinib (first compound 1.265 µM), 0.639. Moreover, the relative viability in the test with Decitabine + Linsitinib (first compound 4 µM) was 0.625.
Regarding NCI-H2405, the relative viability with Decitabine + Foretinib (first compound 0.04 µM) was 0.957; with Decitabine + Foretinib (first compound 0.1265 µM), 0.918; with Decitabine + Foretinib (first compound 0.4 µM) it was 0.863; with Decitabine + Foretinib (first compound 1.265 µM), 0.628; with Decitabine + Foretinib (first compound 4 µM) it was 0.462; with Cediranib + AZD7762 (first compound 0.04 µM), 0.749. The relative viability amounted to 1.31 with Cediranib + AZD7762 (first compound 0.1265 µM); 0.594 with Cediranib + AZD7762 (first compound 0.4 µM); 0.864 with Cediranib + AZD7762 (first compound 1.265 µM); 0.803 with Cediranib + AZD7762 (first compound 4 µM); 0.907 in test [1] (first compound 0.001 µM); 0.935 in test [1] (first compound 0.003162 µM). Also, the relative viability was determined as 0.822 in test [1] (first compound 0.01 µM); 0.831 in test [1] (first compound 0.03162 µM); 0.74 in test [1] (first compound 0.1 µM); 0.838 with Decitabine + Linsitinib (first compound 0.04 µM); 0.891 with Decitabine + Linsitinib (first compound 0.1265 µM); 0.74 with Decitabine + Linsitinib (first compound 0.4 µM). In addition, the figures for the relative viability with Decitabine + Linsitinib (first compound 1.265 µM) and with Decitabine + Linsitinib (first compound 4 µM) were 0.548 and 0.465, respectively.
For NCI-H3122, the relative viability with Decitabine + Foretinib (first compound 0.04 µM) was 0.898; with Decitabine + Foretinib (first compound 0.1265 µM), 0.775; with Decitabine + Foretinib (first compound 0.4 µM), 0.715; with Decitabine + Foretinib (first compound 1.265 µM), 0.539; with Decitabine + Foretinib (first compound 4 µM), 0.575; in the test with Cediranib + AZD7762 (first compound 0.04 µM), 1.05. Also, the relative viability with Cediranib + AZD7762 (first compound 0.4 µM) was determined as 0.95; with Cediranib + AZD7762 (first compound 1.265 µM) it was 0.969; with Cediranib + AZD7762 (first compound 4 µM), 1.07; in test [1] (first compound 0.001 µM) it was 0.253; in test [1] (first compound 0.003162 µM) it was 0.251; in test [1] (first compound 0.01 µM), 0.232. Also, the relative viability in test [1] (first compound 0.03162 µM) amounted to 0.281; in test [1] (first compound 0.1 µM), 0.264; with Decitabine + Linsitinib (first compound 0.04 µM), 1.01; with Decitabine + Linsitinib (first compound 0.1265 µM) it was 1.01; in the test with Decitabine + Linsitinib (first compound 0.4 µM) it was 0.941; with Decitabine + Linsitinib (first compound 1.265 µM), 0.788. In the test with Decitabine + Linsitinib (first compound 4 µM), the relative viability worked out at 0.711.
Consider PC-3 [JPC-3], for which the relative viability with Decitabine + Foretinib (first compound 0.04 µM) turned out to be 0.833; with Decitabine + Foretinib (first compound 0.1265 µM), 0.71; with Decitabine + Foretinib (first compound 0.4 µM), 0.588; with Decitabine + Foretinib (first compound 1.265 µM), 0.54; in the test with Decitabine + Foretinib (first compound 4 µM), 0.472; with Cediranib + AZD7762 (first compound 0.04 µM) it was 0.758. Also, the relative viability was determined as 0.769 with Cediranib + AZD7762 (first compound 0.4 µM); 0.749 with Cediranib + AZD7762 (first compound 1.265 µM); 0.783 with Cediranib + AZD7762 (first compound 4 µM); 1.03 in test [1] (first compound 0.001 µM); 0.969 in test [1] (first compound 0.003162 µM); 0.975 in test [1] (first compound 0.01 µM). The relative viability in test [1] (first compound 0.03162 µM) was determined as 0.943; in test [1] (first compound 0.1 µM) it was 0.988; with Decitabine + Linsitinib (first compound 0.1265 µM), 0.8; with Decitabine + Linsitinib (first compound 0.4 µM), 0.676; with Decitabine + Linsitinib (first compound 1.265 µM), 0.64; with Decitabine + Linsitinib (first compound 4 µM), 0.607.
On to PC-14, for which the relative viability turned out to be 0.744 in the test with Decitabine + Foretinib (first compound 0.1265 µM); 0.411 in the test with Decitabine + Foretinib (first compound 0.4 µM); 0.313 in the test with Decitabine + Foretinib (first compound 1.265 µM); 0.282 in the test with Decitabine + Foretinib (first compound 4 µM); 0.247 in the test with Cediranib + AZD7762 (first compound 0.04 µM); 0.377 in the test with Cediranib + AZD7762 (first compound 0.1265 µM). The relative viability in the test with Cediranib + AZD7762 (first compound 0.4 µM) was 0.355; in the test with Cediranib + AZD7762 (first compound 1.265 µM), 0.262; with Cediranib + AZD7762 (first compound 4 µM), 0.344; in test [1] (first compound 0.001 µM), 1; in test [1] (first compound 0.003162 µM), 0.826; in test [1] (first compound 0.01 µM), 0.727. For the same cell line, the relative viability in test [1] (first compound 0.03162 µM) is 0.722; in test [1] (first compound 0.1 µM) it was 0.183; with Decitabine + Linsitinib (first compound 0.1265 µM), 0.784; in the test with Decitabine + Linsitinib (first compound 0.4 µM), 0.268; with Decitabine + Linsitinib (first compound 1.265 µM) it was 0.283; in the test with Decitabine + Linsitinib (first compound 4 µM), 0.23.
For RERF-LC-KJ, the relative viability with Decitabine + Foretinib (first compound 0.04 µM) came out at 0.877; with Decitabine + Foretinib (first compound 0.1265 µM) it was 0.84; with Decitabine + Foretinib (first compound 0.4 µM), 0.741; with Decitabine + Foretinib (first compound 1.265 µM), 0.689; in the test with Decitabine + Foretinib (first compound 4 µM), 0.635; in the test with Cediranib + AZD7762 (first compound 0.04 µM), 0.92. Moreover, the relative viability in the test with Cediranib + AZD7762 (first compound 0.1265 µM) was 0.411; in the test with Cediranib + AZD7762 (first compound 0.4 µM) it was 0.881; in the test with Cediranib + AZD7762 (first compound 1.265 µM), 0.725; with Cediranib + AZD7762 (first compound 4 µM) it was 0.923; in test [1] (first compound 0.001 µM), 0.888; in test [1] (first compound 0.003162 µM), 0.791. For the same cell line, the relative viability in test [1] (first compound 0.01 µM) turned out to be 0.807; in test [1] (first compound 0.03162 µM), 0.818; in test [1] (first compound 0.1 µM), 0.823; with Decitabine + Linsitinib (first compound 0.04 µM), 0.836; in the test with Decitabine + Linsitinib (first compound 0.1265 µM), 0.763; with Decitabine + Linsitinib (first compound 0.4 µM), 0.239. The relative viability with Decitabine + Linsitinib (first compound 1.265 µM) was 0.677; with Decitabine + Linsitinib (first compound 4 µM), 0.637.
